Data reported in patent US10597390B2, “Indoles for use in influenza virus infection” (Janssen Sciences Ireland UC, priority 2014, dated 2020).

Key:
[1] = system: influenza virus A/Taiwan/1/86 (H1N1); assay: organism not typed; assay type: cell-based; details: CPE in MDCK cells, three days post-virus exposure, ATPlite
[2] = system: MDCK cells; details: dog, 3 days
[3] = in vitro; details: dog, TOX MDCK CC50

| SMILES | IC50 [1] [nM] | CC50 [2] [nM] | IC50 ([1]; MDCK, 72 h) [nM] | melting point [°C] | CC50 at 3 days [3] [nM] |
| --- | --- | --- | --- | --- | --- |
| N#Cc1cc(F)c(N[C@H]2C3CCC(CC3)[C@@H]2C(=O)O)nc1-c1c[nH]c2c(F)cc(F)cc12 (mixture of isomers) [Compound 216] | 2 | 70 |  |  |  |
| O=C(N[C@@H]1CCC[C@H](Nc2nc(-c3c[nH]c4c(F)cc(Cl)cc34)ncc2F)C1)c1ccccn1 (racemic) [Compound 27] | 11 | 9500 |  |  |  |
| Cc1cc(C(=O)N[C@@H]2CCC[C@H](Nc3nc(-c4c[nH]c5c(F)cc(F)cc45)ncc3F)C2)on1 (racemic) [Compound 91] | 21 | 18600 |  |  |  |
| Cc1cc(C(=O)N[C@@H]2CCC[C@@H](Nc3nc(-c4c[nH]c5c(F)cc(F)cc45)c(C#N)cc3F)C2)on1 (racemic) [Compound 207] |  | 8000 | 12 | 285 |  |
| Cc1cc(C(=O)N[C@@H]2CCC[C@H](Nc3nc(-c4c[nH]c5c(F)cc(Cl)cc45)ncc3F)C2)on1 [Compound 44] | 15 | 3500 |  | 255.1 |  |
| Cc1cc(C(=O)N[C@@H]2CCC[C@H](Nc3nc(-c4c[nH]c5c(F)cc(F)cc45)ncc3F)C2)nn1C [Compound 129] | 8 | 7500 |  | 158 |  |
| Cc1cc(C(=O)N[C@@H]2CCC[C@H](Nc3nc(-c4c[nH]c5c(F)cc(F)cc45)ncc3F)C2)on1 [Compound 133] |  | 7500 | 13 | 278.5 |  |
| Cn1ncc(C(=O)N[C@@H]2CCC[C@H](Nc3nc(-c4c[nH]c5c(F)cc(F)cc45)ncc3F)C2)c1N [Compound 156] |  |  | 0.8 | 248.7 | 8500 |
| COc1ccnc(C(=O)N[C@@H]2CCC[C@H](Nc3nc(-c4c[nH]c5c(F)cc(F)cc45)c(C#N)cc3F)C2)c1 [Compound 161] |  |  | 3 | 285.5 | > 25000 |
| N#Cc1cc(F)c(N[C@@H]2CCC[C@H](NC(=O)N3CCCC3)C2)nc1-c1c[nH]c2c(F)cc(F)cc12 [Compound 163] | 720 | 13200 |  |  |  |
| Cc1cc(F)c2[nH]cc(-c3ncc(F)c(N[C@H]4C5CCC(CC5)[C@@H]4C(=O)O)n3)c2c1 [Compound 166] |  |  | 6 | 98 | 1000 |
| Cc1cc(F)c2[nH]cc(-c3ncc(F)c(N[C@H](CC(=O)O)C(C)(C)C)n3)c2c1 [Compound 168] |  |  | > 25000 | 132 | 10300 |
| Cc1cc(F)c2[nH]cc(-c3ncc(F)c(N[C@@H](CC(=O)O)C(C)(C)C)n3)c2c1 [Compound 169] |  |  | 19 | 144 | 2300 |
| N#Cc1cc(F)c2[nH]cc(-c3ncc(F)c(N[C@H]4C5CCC(CC5)[C@@H]4C(=O)O)n3)c2c1 [Compound 171] |  |  | 6 | 211.6 | 700 |
| N#Cc1cc(F)c2[nH]cc(-c3ncc(F)c(N[C@H]4CCC[C@@H](NC(=O)c5c[nH]nn5)C4)n3)c2c1 [Compound 172] |  |  | 2 | > 300 | > 25000 |
| Cn1ccc(C(=O)N[C@@H]2CCC[C@@H](Nc3nc(-c4c[nH]c5c(F)cc(F)cc45)c(C#N)cc3F)C2)n1 [Compound 206] | 3 | > 25000 |  |  |  |
| N#Cc1cc(F)c(N[C@@H]2CCC[C@@H](NC(=O)c3ccccn3)C2)nc1-c1c[nH]c2c(F)cc(F)cc12 [Compound 209] |  |  | 3 | 257 | > 25000 |
| Cc1cc(C(=O)N[C@@H]2CCC[C@H](Nc3nc(-c4c[nH]c5c(F)cc(F)cc45)c(C#N)cc3F)C2)nn1C [Compound 211] | 4 | > 25000 |  | 235 |  |
| N#Cc1cc(F)c(N[C@@H]2CCC[C@H](NC(=O)[C@@H](O)c3ccccc3)C2)nc1-c1c[nH]c2c(F)cc(F)cc12 [Compound 214] |  |  | 670 | 255 | 2900 |
| N#Cc1cc(F)c(N[C@H]2C3CCC(CC3)[C@@H]2C(=O)O)nc1-c1c[nH]c2c(F)cc(F)cc12 [Compound 215] | 0.8 | 150 |  |  |  |
| CC(C)(C)[C@H](CC(=O)O)Nc1nc(-c2c[nH]c3c(F)cc(F)cc23)c(C#N)cc1F [Compound 218] |  |  | 3 | > 280 | 240 |

| SMILES | IC50 [1] [nM] | CC50 [2] [nM] | IC50 ([1]; MDCK, 72 h) [nM] | melting point [°C] | CC50 at 3 days [3] [nM] |
| --- | --- | --- | --- | --- | --- |
| Cc1cc(C(=O)N[C@@H]2CCC[C@@H](Nc3nc(-c4c[nH]c5c(F)cc(F)cc45)c(C#N)cc3F)C2)on1 [Compound 220] | 10 | 3500 |  |  |  |
| O=C(O)c1cccnc1C(=O)N[C@@H]1CCC[C@H](Nc2nc(-c3c[nH]c4c(F)cc(F)cc34)ncc2F)C1 [Compound 225] |  |  | 9 | 265.2 | > 5000 |
| CC(C)(c1cccs1)C(CC(=O)O)Nc1nc(-c2c[nH]c3c(F)cc(F)cc23)c(C#N)cc1F (centres unmarked) [Compound 229, 3-((5-cyano-6-(5,7-difluoro-1H-indol-3-yl)-3-fluoropyridin-2-yl)amino)-4-methyl-4-(thiophen-2-yl)pentanoic Acid] |  |  | 18 | 235.7 | 200 |
| CC(C)(c1cccs1)[C@H](CC(=O)O)Nc1nc(-c2c[nH]c3c(F)cc(F)cc23)ncc1F [Compound 231] |  |  | 10 | 271.1 | 2600 |
| CC(C)(c1nccs1)C(CC(=O)O)Nc1nc(-c2c[nH]c3c(F)cc(F)cc23)c(C#N)cc1F (centres unmarked) [Compound 232] |  |  | 3 | 223.6 | 300 |
| Cc1cc(F)c2[nH]cc(-c3ncc(F)c(NC(CC(=O)O)C(C)(C)c4nccs4)n3)c2c1 (centres unmarked) [Compound 233] |  |  | 15 | 237.2 | 17300 |
| Cc1cc(F)c2[nH]cc(-c3ncc(F)c(NC(CC(=O)O)C(C)(C)c4ccn(C)n4)n3)c2c1 (centres unmarked) [Compound 234] |  |  | 460 | 208.5 | > 25000 |
| Cc1cc(F)c2[nH]cc(-c3ncc(F)c(N[C@@H](CC(=O)O)C(C)(C)c4ccn(C)n4)n3)c2c1 [Compound 235] |  |  | 190 | > 260 | > 25000 |
| Cn1ccc(C(C)(C)C(CC(=O)O)Nc2nc(-c3c[nH]c4c(F)cc(F)cc34)c(C#N)cc2F)n1 (centres unmarked) [Compound 236] |  |  | 86 | 246.9 | 1500 |
| CC(C)(c1ccccn1)C(CC(=O)O)Nc1nc(-c2c[nH]c3c(F)cc(F)cc23)c(C#N)cc1F (centres unmarked) [Compound 237, 3-((5-cyano-6-(5,7-difluoro-1H-indol-3-yl)-3-fluoropyridin-2-yl)amino)-4-methyl-4-(pyridin-2-yl)pentanoic Acid] |  |  | 3 | 230.8 | 400 |
| Cc1cc(F)c2[nH]cc(-c3ncc(F)c(N[C@@H](CC(=O)O)C(C)(C)c4ccccn4)n3)c2c1 [Compound 239] |  |  | 10 | 219 | 15300 |
| COC(C)(C)C(CC(=O)O)Nc1nc(-c2c[nH]c3c(F)cc(F)cc23)c(C#N)cc1F (centres unmarked) [Compound 240, 3-((5-cyano-6-(5,7-difluoro-1H-indol-3-yl)-3-fluoropyridin-2-yl)amino)-4-methoxy-4-methylpentanoic Acid] |  |  | 47 | 218.8 | 900 |
| C=CCC(C)(C)C(CC(=O)O)Nc1nc(-c2c[nH]c3c(F)cc(F)cc23)c(C#N)cc1F (centres unmarked) [Compound 241, 3-((5-cyano-6-(5,7-difluoro-1H-indol-3-yl)-3-fluoropyridin-2-yl)amino)-4,4-dimethylhept-6-enoic Acid] |  |  | 12 | > 260 | 50 |
| C=CCC(C)(C)[C@@H](CC(=O)O)Nc1nc(-c2c[nH]c3c(F)cc(C)cc23)ncc1F [Compound 243] |  |  | 46 | < 280 | 600 |
| CC1(C(CC(=O)O)Nc2nc(-c3c[nH]c4c(F)cc(F)cc34)c(C#N)cc2F)CCCC1 (centres unmarked) [Compound 244, 3-((5-cyano-6-(5,7-difluoro-1H-indol-3-yl)-3-fluoropyridin-2-yl)amino)-3-(1-methylcyclopentyl)propanoic Acid] |  |  | 5 | 150 | 60 |
| CC1([C@@H](CC(=O)O)Nc2nc(-c3c[nH]c4c(F)cc(F)cc34)c(C#N)cc2F)CCCC1 [Compound 245] |  |  | 3 | 289.6 | 700 |
| CC1(C(CC(N)=O)Nc2nc(-c3c[nH]c4c(F)cc(F)cc34)c(C#N)cc2F)CCCC1 (centres unmarked) [Compound 246] |  |  | 610 | 270.1 | 6900 |
| CC(=O)NCc1cc(F)c(N[C@@H]2CCC[C@H](NC(=O)N3CCCC3)C2)nc1-c1c[nH]c2c(F)cc(F)cc12 [Compound 248] |  |  | 50 | < 260 | > 25000 |
| CN(C)C(=O)C(C)(C)C(CC(=O)O)Nc1nc(-c2c[nH]c3c(F)cc(F)cc23)ncc1F (centres unmarked) [Compound 251] |  |  | 150 | 253 | > 25000 |
| CC1(C(CC(=O)O)Nc2nc(-c3c[nH]c4c(F)cc(F)cc34)c(C#N)cc2F)CCOCC1 (centres unmarked) [Compound 255, 3-((5-cyano-6-(5,7-difluoro-1H-indol-3-yl)-3-fluoropyridin-2-yl)amino)-3-(4-methyltetrahydro-2H-pyran-4-yl)propanoic Acid] |  |  | 170 | 151.1 | 5300 |
| CC(=O)NCc1cc(F)c(N[C@H]2CCC[C@@H](NC(=O)c3cn(C)cn3)C2)nc1-c1c[nH]c2c(F)cc(F)cc12 [Compound 259] | 170 | > 25000 |  | > 260 |  |
